Source: ChEMBL document CHEMBL4330108, “The association between anti-tumor potency and structure-activity of protein-kinases inhibitors based on quinazoline molecular skeleton” (Bioorg Med Chem, 2019)
Each block holds one compound with its values, some of them ahead of it.

Experiments:
[1] = target: T1, Vascular endothelial growth factor receptor 2 (Homo sapiens, UniProt P35968); assay: Inhibition of VEGFR2 (unknown origin) using FAM-labelled peptide as substrate measured after 10 mins
Histone deacetylase 1 = Histone deacetylase 1 (Homo sapiens, UniProt Q13547); assay: Inhibition of HDAC1 (unknown origin) using HDAC substrate by AFC probe based immunoprecipitation assay
[2] = target: Serine/threonine-protein kinase B-raf (Homo sapiens, UniProt P15056, V600E); assay: Inhibition of recombinant human GST-fused B-Raf V600E mutant using MEK1 as substrate measured after 60 mins by HTRF assay
[3] = Inhibition of PI3K (unknown origin) using PIP2 as substrate measured after 2 hrs by luciferase-luciferin […] assay; design: species or system Homo sapiens
[4] = target: Vascular endothelial growth factor receptor 1 (Homo sapiens, UniProt P17948); assay: Inhibition of VEGFR1 (unknown origin)
[5] = Inhibition of bovine brain PI3K using phosphatidylinositol as substrate preincubated for 5 mins followed by [gamma-32P]ATP addition and measured after 10 mins by liquid scintillation counting method; design: species or system Bos taurus
[6] = target: T1, Vascular endothelial growth factor receptor 2
[7] = target: Vascular endothelial growth factor receptor 3 (Homo sapiens, UniProt P35916); assay: Inhibition of VEGFR3 (unknown origin)
[8] = target: Serine/threonine-protein kinase B-raf (Homo sapiens) (UniProt P15056); assay: Inhibition of wild-type B-Raf (unknown origin) at 10 uM relative to control
[9] = target: Epidermal growth factor receptor (Homo sapiens, UniProt P00533); assay: Inhibition of EGFR (unknown origin)
[10] = target: Receptor tyrosine-protein kinase erbB-2 (Homo sapiens, UniProt P04626); assay: Inhibition of HER2 (unknown origin)
[11] = Inhibition of PI3K (unknown origin); design: species or system Homo sapiens

T1 sequence (P35968 whole entry): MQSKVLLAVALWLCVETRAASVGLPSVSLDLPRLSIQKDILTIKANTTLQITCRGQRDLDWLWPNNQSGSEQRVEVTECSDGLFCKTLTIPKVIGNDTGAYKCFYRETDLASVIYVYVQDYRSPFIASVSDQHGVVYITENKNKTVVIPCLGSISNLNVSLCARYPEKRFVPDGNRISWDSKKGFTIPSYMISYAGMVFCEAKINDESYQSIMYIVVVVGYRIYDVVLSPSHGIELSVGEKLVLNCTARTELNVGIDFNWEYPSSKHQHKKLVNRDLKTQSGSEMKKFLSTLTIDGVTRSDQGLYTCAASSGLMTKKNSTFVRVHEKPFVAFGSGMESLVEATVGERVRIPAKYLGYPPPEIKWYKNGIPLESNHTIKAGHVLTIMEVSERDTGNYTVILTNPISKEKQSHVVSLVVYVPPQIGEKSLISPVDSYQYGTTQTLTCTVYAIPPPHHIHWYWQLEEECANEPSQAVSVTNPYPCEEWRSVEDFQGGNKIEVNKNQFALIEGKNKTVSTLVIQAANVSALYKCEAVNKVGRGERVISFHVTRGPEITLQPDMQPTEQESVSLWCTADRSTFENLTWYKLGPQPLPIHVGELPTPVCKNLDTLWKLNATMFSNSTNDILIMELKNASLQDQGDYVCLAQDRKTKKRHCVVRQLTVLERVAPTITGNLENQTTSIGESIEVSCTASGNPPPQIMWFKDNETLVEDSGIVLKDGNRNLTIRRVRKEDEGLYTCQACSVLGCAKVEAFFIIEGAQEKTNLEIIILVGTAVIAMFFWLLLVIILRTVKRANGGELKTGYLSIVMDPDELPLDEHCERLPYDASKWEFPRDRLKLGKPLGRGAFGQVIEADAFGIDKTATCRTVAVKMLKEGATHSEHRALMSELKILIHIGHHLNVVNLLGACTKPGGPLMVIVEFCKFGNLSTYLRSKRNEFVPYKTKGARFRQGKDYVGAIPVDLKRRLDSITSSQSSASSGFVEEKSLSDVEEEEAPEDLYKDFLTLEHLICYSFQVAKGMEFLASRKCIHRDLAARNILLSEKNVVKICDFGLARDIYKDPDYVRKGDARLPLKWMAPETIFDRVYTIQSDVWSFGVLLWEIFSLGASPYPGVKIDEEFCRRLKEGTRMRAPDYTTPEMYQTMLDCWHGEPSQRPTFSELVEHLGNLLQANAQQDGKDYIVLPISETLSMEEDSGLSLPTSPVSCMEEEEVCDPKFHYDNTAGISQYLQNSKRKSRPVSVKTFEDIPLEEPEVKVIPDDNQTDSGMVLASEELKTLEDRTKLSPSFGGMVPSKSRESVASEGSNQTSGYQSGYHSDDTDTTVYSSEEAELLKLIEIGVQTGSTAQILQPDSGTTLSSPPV
Sequence of Vascular endothelial growth factor receptor 3 (P35916 whole entry): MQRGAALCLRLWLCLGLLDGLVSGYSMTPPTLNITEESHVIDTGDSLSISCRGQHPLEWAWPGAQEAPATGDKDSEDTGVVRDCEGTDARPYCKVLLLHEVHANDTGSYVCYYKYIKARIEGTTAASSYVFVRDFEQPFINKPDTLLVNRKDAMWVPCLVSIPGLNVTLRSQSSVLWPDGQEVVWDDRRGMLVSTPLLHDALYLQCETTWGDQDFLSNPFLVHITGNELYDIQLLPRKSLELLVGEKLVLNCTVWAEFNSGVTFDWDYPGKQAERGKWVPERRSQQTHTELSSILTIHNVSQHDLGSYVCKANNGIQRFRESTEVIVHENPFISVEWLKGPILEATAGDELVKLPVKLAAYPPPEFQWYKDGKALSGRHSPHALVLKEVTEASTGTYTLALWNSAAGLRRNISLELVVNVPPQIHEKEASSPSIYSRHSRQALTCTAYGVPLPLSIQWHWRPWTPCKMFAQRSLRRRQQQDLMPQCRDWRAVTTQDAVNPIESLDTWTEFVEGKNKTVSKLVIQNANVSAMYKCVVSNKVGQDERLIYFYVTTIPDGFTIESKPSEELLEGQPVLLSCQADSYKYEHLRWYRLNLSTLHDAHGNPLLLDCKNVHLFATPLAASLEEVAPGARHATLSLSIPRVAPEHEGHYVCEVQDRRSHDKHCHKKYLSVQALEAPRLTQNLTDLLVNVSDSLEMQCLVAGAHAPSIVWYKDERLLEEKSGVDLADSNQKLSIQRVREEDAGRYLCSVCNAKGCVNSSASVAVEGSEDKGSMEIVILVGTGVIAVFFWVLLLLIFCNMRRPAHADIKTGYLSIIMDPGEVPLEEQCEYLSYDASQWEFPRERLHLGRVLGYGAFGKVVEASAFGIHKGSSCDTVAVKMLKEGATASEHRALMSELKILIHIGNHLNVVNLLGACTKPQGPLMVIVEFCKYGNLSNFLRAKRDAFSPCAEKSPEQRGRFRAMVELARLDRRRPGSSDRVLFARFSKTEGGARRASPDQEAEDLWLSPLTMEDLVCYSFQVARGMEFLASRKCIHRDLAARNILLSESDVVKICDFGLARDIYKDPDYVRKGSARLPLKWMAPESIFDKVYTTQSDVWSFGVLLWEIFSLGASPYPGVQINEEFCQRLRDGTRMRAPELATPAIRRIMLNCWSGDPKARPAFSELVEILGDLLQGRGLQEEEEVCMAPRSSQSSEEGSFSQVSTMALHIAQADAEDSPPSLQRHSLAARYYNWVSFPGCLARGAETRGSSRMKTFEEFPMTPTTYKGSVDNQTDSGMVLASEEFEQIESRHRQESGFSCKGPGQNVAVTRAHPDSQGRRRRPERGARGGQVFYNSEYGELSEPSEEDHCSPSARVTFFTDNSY
Sequence of Vascular endothelial growth factor receptor 1 (P17948 whole entry): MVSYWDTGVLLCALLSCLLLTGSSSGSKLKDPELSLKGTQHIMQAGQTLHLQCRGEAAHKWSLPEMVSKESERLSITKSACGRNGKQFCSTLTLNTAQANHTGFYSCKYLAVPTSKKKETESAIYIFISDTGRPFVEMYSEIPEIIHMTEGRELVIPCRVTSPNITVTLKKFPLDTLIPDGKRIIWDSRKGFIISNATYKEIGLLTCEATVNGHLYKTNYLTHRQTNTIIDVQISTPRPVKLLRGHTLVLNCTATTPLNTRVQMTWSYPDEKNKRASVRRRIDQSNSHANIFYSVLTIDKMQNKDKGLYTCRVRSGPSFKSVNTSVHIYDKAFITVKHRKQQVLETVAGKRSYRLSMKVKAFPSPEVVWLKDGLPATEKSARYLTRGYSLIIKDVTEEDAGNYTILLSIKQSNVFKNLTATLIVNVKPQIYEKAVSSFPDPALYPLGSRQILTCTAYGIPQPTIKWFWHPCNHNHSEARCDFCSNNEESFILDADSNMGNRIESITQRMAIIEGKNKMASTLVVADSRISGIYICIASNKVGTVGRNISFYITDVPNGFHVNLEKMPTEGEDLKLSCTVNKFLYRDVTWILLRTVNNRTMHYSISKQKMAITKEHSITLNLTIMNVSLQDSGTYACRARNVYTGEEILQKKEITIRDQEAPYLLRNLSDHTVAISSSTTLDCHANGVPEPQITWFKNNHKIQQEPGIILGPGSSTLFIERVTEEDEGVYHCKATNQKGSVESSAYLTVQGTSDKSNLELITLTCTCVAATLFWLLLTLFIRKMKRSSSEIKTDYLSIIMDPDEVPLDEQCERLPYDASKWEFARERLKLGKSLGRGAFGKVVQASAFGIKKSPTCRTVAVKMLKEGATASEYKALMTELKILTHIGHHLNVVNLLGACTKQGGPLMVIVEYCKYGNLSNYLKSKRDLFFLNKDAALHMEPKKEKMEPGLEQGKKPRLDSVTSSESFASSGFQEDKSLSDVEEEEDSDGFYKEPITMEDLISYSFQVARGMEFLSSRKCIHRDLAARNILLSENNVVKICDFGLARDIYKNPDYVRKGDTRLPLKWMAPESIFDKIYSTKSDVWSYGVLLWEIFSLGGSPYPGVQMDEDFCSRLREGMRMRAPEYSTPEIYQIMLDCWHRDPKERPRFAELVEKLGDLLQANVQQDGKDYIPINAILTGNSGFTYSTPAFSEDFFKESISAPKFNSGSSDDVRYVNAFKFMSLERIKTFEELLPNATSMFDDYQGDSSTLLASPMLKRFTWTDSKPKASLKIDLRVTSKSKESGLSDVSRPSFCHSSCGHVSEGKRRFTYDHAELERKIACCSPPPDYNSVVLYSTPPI
Sequence of Serine/threonine-protein kinase B-raf (Homo sapiens) (P15056 whole entry): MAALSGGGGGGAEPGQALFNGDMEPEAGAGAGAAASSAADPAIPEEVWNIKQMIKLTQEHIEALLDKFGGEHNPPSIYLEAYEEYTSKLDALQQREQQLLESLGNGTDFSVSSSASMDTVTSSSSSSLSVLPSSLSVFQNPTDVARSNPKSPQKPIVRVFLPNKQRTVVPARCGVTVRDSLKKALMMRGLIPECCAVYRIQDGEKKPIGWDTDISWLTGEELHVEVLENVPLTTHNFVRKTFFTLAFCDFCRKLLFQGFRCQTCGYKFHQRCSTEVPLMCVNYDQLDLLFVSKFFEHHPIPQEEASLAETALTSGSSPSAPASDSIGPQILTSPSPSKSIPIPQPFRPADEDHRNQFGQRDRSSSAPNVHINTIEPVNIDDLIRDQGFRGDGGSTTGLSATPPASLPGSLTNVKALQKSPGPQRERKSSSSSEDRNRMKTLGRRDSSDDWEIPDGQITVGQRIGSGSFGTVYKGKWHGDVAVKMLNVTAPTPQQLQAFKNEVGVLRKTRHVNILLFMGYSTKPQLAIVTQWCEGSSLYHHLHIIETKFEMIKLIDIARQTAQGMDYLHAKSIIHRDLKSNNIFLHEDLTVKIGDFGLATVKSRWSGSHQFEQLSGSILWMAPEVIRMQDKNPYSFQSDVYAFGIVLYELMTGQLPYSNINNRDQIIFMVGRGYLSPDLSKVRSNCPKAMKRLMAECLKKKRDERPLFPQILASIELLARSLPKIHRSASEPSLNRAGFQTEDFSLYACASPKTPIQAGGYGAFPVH

SMILES: O=C(Nc1ccc(Nc2ccc([N+](=O)[O-])c3ncnc(O)c23)cc1)Nc1cccc(C(F)(F)F)c1
- IC50 [1]: 45 nM

SMILES: Cc1ccc(CC[C@@H]2CCN2C)c(NC(=O)Nc2cccc(Oc3ccc4nc[nH]c(=O)c4c3)c2)c1
- IC50 [2]: 3.9 nM

SMILES: Cc1cc(N2CCC(F)(F)C2)cc2c(N3CCc4ccc(C(=O)N5CCC(N)CC5)cc4C3)ncnc12
- IC50 [3]: < 500 nM

SMILES: COc1cccc(NC(=O)N2CCCc3cc(Nc4ncnc5cc(OC)c(OC)cc45)ccc32)c1
- IC50 [6]: 51.9 nM
- IC50 [7]: 14.2 nM
- IC50 [4]: 5.5 nM

SMILES: CCOCCCOc1cc2ncnc(Oc3ccc(NC(=O)Nc4ccc(F)c(C(F)(F)F)c4)cc3)c2cc1N
- inhibition [8]: 98.9%

SMILES: CCOc1cc2ncc(C#N)c(Nc3ccc(OCc4ccccn4)c(F)c3)c2cc1NC(=O)/C=C/CN(C)C
- IC50 [9]: 92 nM
- IC50 [10]: 59 nM

SMILES: COc1cc2ncnc(Nc3ccc4c(c3)CCCN4C(=O)Nc3cccc(Cl)c3)c2cc1OC
- IC50 [6]: 30.5 nM
- IC50 [7]: 7.8 nM
- IC50 [4]: 7.1 nM

SMILES: COc1cc2ncnc(Nc3ccc4c(c3)CCCN4C(=O)Nc3ccc(C(C)=O)cc3)c2cc1OC
- IC50 [6]: 30.1 nM
- IC50 [7]: 17.3 nM
- IC50 [4]: 9.6 nM

SMILES: c1ccc2c(c1)ccn2-c1ncnc2ccc(-c3ccc4[nH]ccc4c3)cc12
- IC50 [11]: 100 to 10000 nM

SMILES: Cc1cccc(NC(=O)Nc2ccc(Nc3ccc([N+](=O)[O-])c4ncnc(O)c34)cc2)c1
- IC50 [1]: 78 nM

Results, then the compound that gave them:

- IC50 (Histone deacetylase 1): 178 nM
SMILES: COc1cc2ncnc(Nc3ccc(CC(=O)Nc4cc(-c5cccs5)ccc4N)cc3)c2cc1OC

- IC50 [4]: 1260 nM
SMILES: CCOc1cc2ncc(C#N)c(Nc3ccc(Cl)c(F)c3)c2cc1NC(=O)/C=C/CN(C)C

- IC50 [5]: 1000 nM
SMILES: O=c1cc(N2CCOCC2)oc2c(-c3ccccc3)cccc12 [LY-294002]

- IC50 [1]: 42 nM
SMILES: O=C(Nc1ccc(Nc2ccc([N+](=O)[O-])c3ncnc(O)c23)cc1)Nc1cc(Cl)ccc1Cl

- IC50 [1]: 12 nM
SMILES: O=C(Nc1ccc(Nc2ccc([N+](=O)[O-])c3ncnc(O)c23)cc1)Nc1cc(C(F)(F)F)ccc1Cl
